From ChEMBL document CHEMBL5649169 (ChemMedChem, 2018)

Tests used:
[1] = molecular target: V-type proton ATPase subunit G 1 (Homo sapiens) (UniProt O75348)
[2] = molecular target: Aurora kinase B (Homo sapiens) (UniProt Q96GD4)
[3] = molecular target: Tyrosine-protein kinase CSK (Homo sapiens) (UniProt P41240)
Homo sapiens [4] = species: Homo sapiens
[5] = molecular target: Mitogen-activated protein kinase kinase kinase kinase 5 (Homo sapiens) (UniProt Q9Y4K4)
[6] = molecular target: Leucine-rich PPR motif-containing protein, mitochondrial (Homo sapiens) (UniProt P42704)
[7] = molecular target: Small ribosomal subunit protein uS7 (Homo sapiens) (UniProt P46782)
[8] = molecular target: Rab-like protein 3 (Homo sapiens) (UniProt Q5HYI8)
[9] = molecular target: Breakpoint cluster region protein (Homo sapiens) (UniProt P11274)
[10] = molecular target: BMP-2-inducible protein kinase (Homo sapiens) (UniProt Q9NSY1)
[11] = molecular target: Cerebellar degeneration-related protein 2 (Homo sapiens) (UniProt Q01850)
[12] = molecular target: ATP synthase F(1) complex subunit alpha, mitochondrial (Homo sapiens) (UniProt P25705)
[13] = molecular target: DnaJ homolog subfamily A member 3, mitochondrial (Homo sapiens) (UniProt Q96EY1)
[14] = molecular target: ATPase family AAA domain-containing protein 3B (Homo sapiens) (UniProt Q5T9A4)
[15] = molecular target: Transcription intermediary factor 1-beta (Homo sapiens) (UniProt Q13263)
[16] = molecular target: Ubiquitin-like FUBI-ribosomal protein eS30 fusion protein (Homo sapiens) (UniProt P62861)
[17] = molecular target: Peroxiredoxin-2 (Homo sapiens) (UniProt P32119)
[18] = molecular target: ATP-dependent RNA helicase DDX18 (Homo sapiens) (UniProt Q9NVP1)
[19] = molecular target: Ephrin type-B receptor 3 (Homo sapiens) (UniProt P54753)
[20] = molecular target: Ras-related protein Rab-10 (Homo sapiens) (UniProt P61026)
[21] = molecular target: Sarcoplasmic/endoplasmic reticulum calcium ATPase 2 (Homo sapiens) (UniProt P16615)
[22] = molecular target: FACT complex subunit SSRP1 (Homo sapiens) (UniProt Q08945)
[23] = molecular target: ORM1-like protein 3 (Homo sapiens) (UniProt Q8N138)
[24] = molecular target: Heterogeneous nuclear ribonucleoproteins C1/C2 (Homo sapiens) (UniProt P07910)
[25] = molecular target: Serine/threonine-protein kinase Nek1 (Homo sapiens) (UniProt Q96PY6)
[26] = molecular target: Small ribosomal subunit protein eS4, X isoform (Homo sapiens) (UniProt P62701)
[27] = molecular target: Splicing factor 3B subunit 1 (Homo sapiens) (UniProt O75533)
[28] = molecular target: Glutathione reductase, mitochondrial (Homo sapiens) (UniProt P00390)
[29] = molecular target: Signal recognition particle 14 kDa protein (Homo sapiens) (UniProt P37108)
[30] = molecular target: Deoxynucleoside triphosphate triphosphohydrolase SAMHD1 (Homo sapiens) (UniProt Q9Y3Z3)
[31] = molecular target: Mammalian ependymin-related protein 1 (Homo sapiens) (UniProt Q9UM22)
Homo sapiens [32] = species: Homo sapiens; remark: listed apart in the source
[33] = molecular target: ATP-citrate synthase (Homo sapiens) (UniProt P53396)
[34] = molecular target: Succinate--CoA ligase [ADP/GDP-forming] subunit alpha, mitochondrial (Homo sapiens) (UniProt P53597)
[35] = molecular target: Lamina-associated polypeptide 2, isoform alpha (Homo sapiens) (UniProt P42166)
[36] = molecular target: UV excision repair protein RAD23 homolog B (Homo sapiens) (UniProt P54727)
[37] = molecular target: ATP-dependent RNA helicase DHX15 (Homo sapiens) (UniProt O43143)
[38] = molecular target: Transcription factor A, mitochondrial (Homo sapiens) (UniProt Q00059)
[39] = molecular target: Cilia- and flagella-associated protein 410 (Homo sapiens) (UniProt O43822)
[40] = molecular target: Glutamine--tRNA ligase (Homo sapiens) (UniProt P47897)
[41] = molecular target: Cyclin-dependent kinase 1 (Homo sapiens) (UniProt P06493)
[42] = molecular target: RNA cytidine acetyltransferase (Homo sapiens) (UniProt Q9H0A0)
Filamin-A (Homo sapiens) = Filamin-A (Homo sapiens) (UniProt P21333)
[43] = molecular target: Glutathione S-transferase omega-1 (Homo sapiens) (UniProt P78417)
[44] = molecular target: Wee1-like protein kinase (Homo sapiens) (UniProt P30291)
[45] = molecular target: Bone morphogenetic protein receptor type-1B (Homo sapiens) (UniProt O00238)
Also: assay method not described here.

Heterogeneous nuclear ribonucleoproteins C1/C2 (Homo sapiens), sequence (P07910 whole entry): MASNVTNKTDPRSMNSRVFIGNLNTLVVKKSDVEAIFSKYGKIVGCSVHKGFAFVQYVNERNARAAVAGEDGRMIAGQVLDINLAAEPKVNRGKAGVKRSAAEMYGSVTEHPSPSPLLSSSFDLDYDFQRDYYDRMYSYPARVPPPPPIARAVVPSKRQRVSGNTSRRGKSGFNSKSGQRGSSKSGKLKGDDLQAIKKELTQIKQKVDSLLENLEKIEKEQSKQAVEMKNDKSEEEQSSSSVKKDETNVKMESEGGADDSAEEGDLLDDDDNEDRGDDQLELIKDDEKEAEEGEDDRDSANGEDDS
Mitogen-activated protein kinase kinase kinase kinase 5 (Homo sapiens), sequence (Q9Y4K4 whole entry, looked up): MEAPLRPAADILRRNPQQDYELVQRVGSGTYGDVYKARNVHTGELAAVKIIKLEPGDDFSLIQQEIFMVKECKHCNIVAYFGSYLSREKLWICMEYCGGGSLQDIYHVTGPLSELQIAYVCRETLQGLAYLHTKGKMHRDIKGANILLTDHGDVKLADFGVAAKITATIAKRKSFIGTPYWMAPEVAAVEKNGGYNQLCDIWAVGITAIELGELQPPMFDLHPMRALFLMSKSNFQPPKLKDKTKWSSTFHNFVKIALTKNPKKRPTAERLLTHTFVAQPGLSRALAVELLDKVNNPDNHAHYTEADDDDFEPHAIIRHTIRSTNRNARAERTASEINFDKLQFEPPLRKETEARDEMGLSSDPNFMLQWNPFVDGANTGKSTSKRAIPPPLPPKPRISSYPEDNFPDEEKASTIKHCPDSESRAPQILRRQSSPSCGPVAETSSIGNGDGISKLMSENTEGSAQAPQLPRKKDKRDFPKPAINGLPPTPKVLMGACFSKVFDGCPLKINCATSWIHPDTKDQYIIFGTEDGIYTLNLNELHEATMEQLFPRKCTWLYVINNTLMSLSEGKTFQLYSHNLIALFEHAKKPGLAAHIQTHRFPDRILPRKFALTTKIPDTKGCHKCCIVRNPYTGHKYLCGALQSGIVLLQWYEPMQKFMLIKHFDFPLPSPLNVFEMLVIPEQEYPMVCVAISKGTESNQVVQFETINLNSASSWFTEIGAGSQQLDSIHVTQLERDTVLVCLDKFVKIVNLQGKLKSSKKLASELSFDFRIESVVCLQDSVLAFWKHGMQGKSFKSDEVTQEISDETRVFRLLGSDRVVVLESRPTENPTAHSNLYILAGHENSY
ATP-dependent RNA helicase DDX18 (Homo sapiens), sequence (Q9NVP1 whole entry): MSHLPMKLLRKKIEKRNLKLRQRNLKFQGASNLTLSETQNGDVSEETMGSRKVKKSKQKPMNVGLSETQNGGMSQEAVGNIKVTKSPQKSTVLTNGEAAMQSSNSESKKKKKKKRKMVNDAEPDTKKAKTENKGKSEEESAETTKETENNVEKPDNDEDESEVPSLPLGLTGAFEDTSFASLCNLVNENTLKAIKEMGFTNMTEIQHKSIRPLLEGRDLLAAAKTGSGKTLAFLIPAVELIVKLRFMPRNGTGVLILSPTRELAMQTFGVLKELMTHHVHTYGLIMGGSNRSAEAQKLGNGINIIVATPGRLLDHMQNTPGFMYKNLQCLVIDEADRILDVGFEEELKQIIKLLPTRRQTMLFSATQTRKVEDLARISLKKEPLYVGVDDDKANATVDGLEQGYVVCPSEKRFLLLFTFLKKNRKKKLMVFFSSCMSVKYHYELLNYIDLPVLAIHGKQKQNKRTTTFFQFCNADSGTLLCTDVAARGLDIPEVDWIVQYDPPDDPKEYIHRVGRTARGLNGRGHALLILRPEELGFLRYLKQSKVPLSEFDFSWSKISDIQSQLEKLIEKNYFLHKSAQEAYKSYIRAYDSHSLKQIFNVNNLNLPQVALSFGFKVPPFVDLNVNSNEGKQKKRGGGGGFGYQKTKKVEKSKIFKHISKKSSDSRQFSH
Transcription intermediary factor 1-beta (Homo sapiens), sequence (Q13263 whole entry, the tested form may be a part): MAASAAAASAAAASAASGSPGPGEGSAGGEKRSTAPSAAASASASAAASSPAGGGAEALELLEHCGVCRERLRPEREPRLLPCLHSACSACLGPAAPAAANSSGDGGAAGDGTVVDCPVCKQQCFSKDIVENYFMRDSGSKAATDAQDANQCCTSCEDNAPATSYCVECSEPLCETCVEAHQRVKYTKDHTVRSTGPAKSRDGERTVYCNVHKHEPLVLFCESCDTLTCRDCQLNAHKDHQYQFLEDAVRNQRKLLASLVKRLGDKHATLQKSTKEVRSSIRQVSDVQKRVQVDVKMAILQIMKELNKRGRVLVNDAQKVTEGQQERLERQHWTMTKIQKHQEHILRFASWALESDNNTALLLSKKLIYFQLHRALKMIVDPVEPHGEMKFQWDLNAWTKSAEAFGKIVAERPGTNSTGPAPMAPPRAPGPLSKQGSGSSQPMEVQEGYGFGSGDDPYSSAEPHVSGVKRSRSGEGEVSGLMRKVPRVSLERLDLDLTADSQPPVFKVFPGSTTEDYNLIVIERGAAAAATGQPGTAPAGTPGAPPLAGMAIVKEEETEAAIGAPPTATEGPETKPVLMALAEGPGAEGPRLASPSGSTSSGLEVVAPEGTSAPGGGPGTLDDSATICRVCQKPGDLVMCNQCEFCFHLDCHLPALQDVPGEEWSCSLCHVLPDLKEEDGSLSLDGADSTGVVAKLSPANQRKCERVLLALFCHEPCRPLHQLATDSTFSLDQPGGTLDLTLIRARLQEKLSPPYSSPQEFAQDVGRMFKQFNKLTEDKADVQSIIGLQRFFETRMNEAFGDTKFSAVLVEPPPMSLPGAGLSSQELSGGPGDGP
Breakpoint cluster region protein (Homo sapiens), sequence (P11274 whole entry): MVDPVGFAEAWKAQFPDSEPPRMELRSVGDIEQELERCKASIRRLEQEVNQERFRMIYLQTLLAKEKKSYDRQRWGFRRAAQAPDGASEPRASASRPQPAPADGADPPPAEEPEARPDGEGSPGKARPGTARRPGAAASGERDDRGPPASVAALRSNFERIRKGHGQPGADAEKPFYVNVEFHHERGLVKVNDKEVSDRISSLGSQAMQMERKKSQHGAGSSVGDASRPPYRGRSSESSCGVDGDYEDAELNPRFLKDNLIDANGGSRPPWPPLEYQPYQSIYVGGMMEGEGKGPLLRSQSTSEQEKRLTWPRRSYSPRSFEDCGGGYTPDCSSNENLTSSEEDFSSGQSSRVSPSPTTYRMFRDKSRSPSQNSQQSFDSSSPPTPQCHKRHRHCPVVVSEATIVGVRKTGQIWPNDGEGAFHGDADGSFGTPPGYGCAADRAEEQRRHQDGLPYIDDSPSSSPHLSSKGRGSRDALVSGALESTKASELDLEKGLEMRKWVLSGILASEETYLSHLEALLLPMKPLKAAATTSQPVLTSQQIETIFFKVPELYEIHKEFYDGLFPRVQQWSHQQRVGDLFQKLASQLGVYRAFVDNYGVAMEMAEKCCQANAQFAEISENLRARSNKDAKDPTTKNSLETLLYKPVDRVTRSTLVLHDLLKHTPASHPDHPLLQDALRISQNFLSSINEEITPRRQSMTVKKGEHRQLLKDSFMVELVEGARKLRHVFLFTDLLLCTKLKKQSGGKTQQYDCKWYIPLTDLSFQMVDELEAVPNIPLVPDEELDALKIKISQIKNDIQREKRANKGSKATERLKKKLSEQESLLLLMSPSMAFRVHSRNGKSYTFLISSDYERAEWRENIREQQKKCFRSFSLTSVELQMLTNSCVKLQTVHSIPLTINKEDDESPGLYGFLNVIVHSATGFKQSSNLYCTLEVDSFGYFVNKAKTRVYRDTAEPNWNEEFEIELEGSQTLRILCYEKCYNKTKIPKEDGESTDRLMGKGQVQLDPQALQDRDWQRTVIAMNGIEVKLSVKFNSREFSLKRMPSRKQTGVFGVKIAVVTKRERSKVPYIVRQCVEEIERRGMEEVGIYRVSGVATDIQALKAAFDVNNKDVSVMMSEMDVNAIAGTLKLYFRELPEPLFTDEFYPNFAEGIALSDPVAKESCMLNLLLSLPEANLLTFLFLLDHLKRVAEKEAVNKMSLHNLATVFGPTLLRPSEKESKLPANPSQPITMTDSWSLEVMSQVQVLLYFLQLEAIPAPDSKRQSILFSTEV
Deoxynucleoside triphosphate triphosphohydrolase SAMHD1 (Homo sapiens), sequence (Q9Y3Z3 whole entry): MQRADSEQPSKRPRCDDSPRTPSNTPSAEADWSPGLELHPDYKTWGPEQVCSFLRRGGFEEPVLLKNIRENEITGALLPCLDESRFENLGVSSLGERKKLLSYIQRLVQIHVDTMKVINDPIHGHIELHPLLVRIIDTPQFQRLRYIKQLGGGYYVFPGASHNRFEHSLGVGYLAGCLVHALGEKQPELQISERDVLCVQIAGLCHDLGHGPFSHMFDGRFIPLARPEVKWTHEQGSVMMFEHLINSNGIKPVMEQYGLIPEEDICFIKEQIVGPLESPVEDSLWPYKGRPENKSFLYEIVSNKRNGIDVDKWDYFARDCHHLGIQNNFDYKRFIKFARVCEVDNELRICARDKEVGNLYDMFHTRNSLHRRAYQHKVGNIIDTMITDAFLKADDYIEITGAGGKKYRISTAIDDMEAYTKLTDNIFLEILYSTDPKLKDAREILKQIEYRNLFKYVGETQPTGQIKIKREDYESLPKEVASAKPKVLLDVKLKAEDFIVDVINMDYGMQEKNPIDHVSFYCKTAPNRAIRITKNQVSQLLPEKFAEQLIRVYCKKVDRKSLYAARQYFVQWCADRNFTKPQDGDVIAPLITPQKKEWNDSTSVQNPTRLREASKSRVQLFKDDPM
Aurora kinase B (Homo sapiens), sequence (Q96GD4 whole entry): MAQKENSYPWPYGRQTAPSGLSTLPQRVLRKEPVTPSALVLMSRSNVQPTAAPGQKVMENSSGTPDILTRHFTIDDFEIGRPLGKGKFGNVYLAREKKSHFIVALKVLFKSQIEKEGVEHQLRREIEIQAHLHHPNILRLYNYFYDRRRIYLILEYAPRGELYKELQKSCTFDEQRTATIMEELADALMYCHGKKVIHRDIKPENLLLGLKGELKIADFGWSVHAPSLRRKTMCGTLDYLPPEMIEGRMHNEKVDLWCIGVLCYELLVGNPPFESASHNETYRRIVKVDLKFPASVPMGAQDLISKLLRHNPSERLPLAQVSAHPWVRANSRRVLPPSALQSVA
V-type proton ATPase subunit G 1 (Homo sapiens), sequence (O75348 whole entry): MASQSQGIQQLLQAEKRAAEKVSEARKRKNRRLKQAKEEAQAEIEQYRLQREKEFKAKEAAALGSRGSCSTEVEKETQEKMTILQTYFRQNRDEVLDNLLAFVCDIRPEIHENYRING

Cc1ccc(C(=O)Nc2cccc(C(F)(F)F)c2)cc1Nc1nc(-c2cccnc2)nc2c1cnn2C was tested, and the ED50 [1] was 501 µM, the ED50 [2] was 11.6 µM and the ED50 [3] was 4.52 µM. It also gave an ED50 (Homo sapiens [4]) of 3.03 µM, an ED50 [5] of 5.17 µM and an ED50 [6] of 0.112 µM. It also gave an ED50 [7] of 0.176 µM, an ED50 [8] of 4.04 µM and an ED50 [9] of 0.488 µM. For the same molecule, the ED50 [10] was 0.0018 µM, the ED50 [11] was 26.2 µM and the ED50 [12] was 1.48 µM. It also gave an ED50 [13] of 0.00101 µM, an ED50 [14] of 0.0809 µM and an ED50 [15] of 59.2 µM. The ED50 [16] was 0.562 µM, the ED50 [17] was 8 µM and the ED50 [18] was 0.0244 µM. It also gave an ED50 [19] of 2.64 µM, an ED50 [20] of 0.846 µM and an ED50 [21] of 9.67 µM. It also gave an ED50 [22] of 0.00223 µM, an ED50 [23] of 5.95 µM and an ED50 [24] of 0.127 µM. For the same molecule, the ED50 [25] was 1.87 µM, the ED50 [26] was 0.0296 µM and the ED50 [27] was 2.85 µM. The ED50 [28] was 8.81 µM, the ED50 [29] was 20.3 µM and the ED50 [30] was 0.00363 µM. The ED50 [31] was 0.362 µM, the ED50 (Homo sapiens [32]) was 2.31 µM and the ED50 [33] was 12.3 µM. For the same molecule, the ED50 [34] was 0.0563 µM, the ED50 [35] was 3.35 µM and the ED50 [36] was 0.00259 µM. For the same molecule, the ED50 [37] was 0.372 µM, the ED50 [38] was 17 µM and the ED50 [39] was 46.8 µM. The ED50 [40] was 0.107 µM, the ED50 [41] was 3.8 µM and the ED50 [42] was 0.000302 µM. The ED50 (Filamin-A (Homo sapiens)) was 7.88 µM, the ED50 [43] was 4.06 µM and the ED50 [44] was 0.0311 µM. The ED50 [45] was 6290 µM.
With Cc1ccc(C(=O)Nc2cccc(C(F)(F)F)c2)cc1Nc1nc(-c2cccnc2)nc2nn(C)cc12 the ED50 [1] was 9.38 µM, the ED50 [2] was 0.128 µM and the ED50 [3] was 1.86 µM. It also gave an ED50 (Homo sapiens [4]) of 0.00933 µM, an ED50 [5] of 13.4 µM and an ED50 [6] of 3.28 µM. For the same molecule, the ED50 [7] was 0.0501 µM, the ED50 [8] was 22.5 µM and the ED50 [9] was 0.852 µM. For the same molecule, the ED50 [10] was 0.11 µM, the ED50 [11] was 0.303 µM and the ED50 [12] was 1.74 µM. For the same molecule, the ED50 [13] was 0.193 µM, the ED50 [14] was 0.0188 µM and the ED50 [15] was 0.0787 µM. For the same molecule, the ED50 [16] was 12.4 µM, the ED50 [17] was 6.92 µM and the ED50 [18] was 0.0164 µM. For the same molecule, the ED50 [19] was 7.41 µM, the ED50 [20] was 7.34 µM and the ED50 [21] was 0.0232 µM. It also gave an ED50 [22] of 3.6 µM, an ED50 [23] of 7.47 µM and an ED50 [24] of 7.54 µM. The ED50 [25] was 0.000912 µM, the ED50 [26] was 0.515 µM and the ED50 [27] was 3 µM. For the same molecule, the ED50 [28] was 24.7 µM, the ED50 [29] was 3.59 µM and the ED50 [30] was 12.8 µM. For the same molecule, the ED50 [31] was 0.016 µM, the ED50 (Homo sapiens [32]) was 0.716 µM and the ED50 [33] was 21.4 µM. It also gave an ED50 [34] of 0.877 µM, an ED50 [35] of 6.61 µM and an ED50 [36] of 14.9 µM. For the same molecule, the ED50 [37] was 23 µM, the ED50 [38] was 0.0487 µM and the ED50 [39] was 0.574 µM. The ED50 [40] was 17 µM, the ED50 [41] was 7.91 µM and the ED50 [42] was 0.235 µM. For the same molecule, the ED50 (Filamin-A (Homo sapiens)) was 21.4 µM, the ED50 [43] was 0.0945 µM and the ED50 [44] was 2.63 µM. The ED50 [45] was 60.4 µM.
